Experimental data as given in patent publication US7432259B2, “Spiro-piperidine derivatives” (Hoffmann-La Roche Inc., priority 2006, dated 2008).

Target: T1, human V1a receptor (Homo sapiens, UniProt P37288)
T1 construct: expressed in transfected cells; host or cells: HEK293 cells, transiently transfected; cell membranes used
Test: human V1a receptor binding study (3H-Vasopressin SPA, membranes of transfected HEK293 cells)
Conditions: membranes of HEK293 cells transiently transfected with human V1a receptor, Ki by Cheng-Prussoff equation, read-out: pKi(hV1a) (converted)
Protocol: The human V1a receptor was cloned by RT-PCR from total human liver RNA. The coding sequence was subcloned in an expression vector after sequencing to confirm the identity of the amplified sequence. […] Cell membranes were prepared from HEK293 cells transiently transfected with the expression vector and grown in 20 liter fermenters with the following protocol.
50 g of cells were resuspended in 30 ml freshly prepared ice cold Lysis buffer (50 mM HEPES, 1 mM EDTA, 10 mM MgCl2 adjusted to pH=7.4+complete cocktail of protease inhibitor (Roche Diagnostics)). Homogenized with Polytron for 1 min and sonicated on ice for 2×2 minutes at 80%, intensity (Vibracell sonicator). The preparation was centrifuged 20 min at 500 g at 4° C., the pellet was discarded and the supernatant centrifuged 1 hour at 43,000 g at 4° C. (19,000 rpm). The pellet was resuspended in 12.5 ml Lysis buffer+12.5 ml Sucrose 20% and homogenized using a Polytron for 1-2 min. The protein concentration was determined by the Bradford method and aliquots were stored at −80° C. until use. For binding studies 60 mg Yttrium silicate SPA beads (Amersham) were mixed with an aliquot of membrane in binding buffer (50 mM Tris, 120 mM NaCl, 5 mM KCl, 2 mM CaCl2, 10 mM MgCl2) for 15 minutes with mixing. 50 ul of bead/membrane mixture was then added to each well of a 96 well plate, followed by 50 ul of 4 nM 3H-Vasopressin (American Radiolabeled Chemicals). For total binding measurement 100 ul of binding buffer were added to the respective wells, for non-specific binding 100 ul of 8.4 mM cold vasopressin and for compound testing 100 ul of a serial dilution of each compound in 2% DMSO. The plate was incubated 1 h at room temperature, centrifuged 1 min at 1000 g and counted on a Packard Top-Count. Non-specific binding counts were subtracted from each well and data was normalized to the maximum specific binding set at 100%. To calculate an IC 50 the curve was fitted using a non-linear regression model (XLfit) and the Ki was calculated using the Cheng-Prussoff equation.

T1 sequence (P37288 whole entry): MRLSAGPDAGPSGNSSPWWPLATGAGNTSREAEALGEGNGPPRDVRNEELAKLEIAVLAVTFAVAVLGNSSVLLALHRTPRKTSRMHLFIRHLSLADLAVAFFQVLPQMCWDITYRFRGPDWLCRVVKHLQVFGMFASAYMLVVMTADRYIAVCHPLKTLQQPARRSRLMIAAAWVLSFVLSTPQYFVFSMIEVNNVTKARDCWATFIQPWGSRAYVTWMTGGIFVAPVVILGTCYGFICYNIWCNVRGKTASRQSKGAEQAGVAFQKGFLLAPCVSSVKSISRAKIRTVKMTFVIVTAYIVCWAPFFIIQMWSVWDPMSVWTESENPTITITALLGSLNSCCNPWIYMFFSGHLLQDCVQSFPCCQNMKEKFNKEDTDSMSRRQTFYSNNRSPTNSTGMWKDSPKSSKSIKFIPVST

| Ki | SMILES |
| --- | --- |
| 10.6 nM | N#CCn1c(C(=O)N2CCC3(CC2)OC(=O)Nc2ccccc23)cc2cc(Cl)ccc21 [Example 16, {5-Chloro-2-[(2-oxo-1,2-dihydro-1′H-spiro[3,1-benzoxazine-4,4′-piperidin]-1′-yl)carbonyl]-1H-indol-1-yl}acetonitrile] |
| 60.3 nM | N#CCn1c(C(=O)N2CCC3(CC2)OC(=O)Nc2ccccc23)cc2ccccc21 [Example 15, {2-[(2-Oxo-1,2-dihydro-1′H-spiro[3,1-benzoxazine-4,4′-piperidin]-1′-yl)carbonyl]-1H-indol-1-yl}acetonitrile] |
| 29.9 nM | Cn1c(C(=O)N2CCC3(CC2)OC(=O)Nc2ccccc23)cc2cc(Cl)ccc21 [Example 14, 1′-[(5-Chloro-1-methyl-1H-indol-2-yl)carbonyl]spiro[3,1-benzoxazine-4,4′-piperidin]-2(1H)-one] |
| 47.3 nM | N#CCn1c(C(=O)N2CCC3(CC2)CC(=O)Nc2ccc(Br)cc23)cc2cc(Cl)ccc21 [Example 7, {2-[(6′-Bromo-2′-oxo-2′,3′-dihydro-1H,1′H-spiro[piperidine-4,4′-quinolin]-1-yl)carbonyl]-5-chloro-1H-indol-1-yl}acetonitrile] |
